Laboratory results reported in publication PMC7758422, “Design, Synthesis, and Antitumor Activities Study of Stapled A4K14-Citropin 1.1 Peptides” (Frontiers in Chemistry, 2020).

Assay: on-resin all-hydrocarbon stapling by ring-closing metathesis of S5/S5 (i,i+4) or R8/S5 (i,i+7), Grubbs first-generation catalyst (0.45 mmol per 0.15 mmol resin, 3 equiv), then TFA/TIPS/phenol/H2O cleavage and RP-HPLC
Conditions: the molecule shown is the open-chain precursor, 25.0 °C, 4.0 h, 36 steps
[1] = 21-membered ring, 1,2-dichloroethane

SMILES | ring closure, overall yield [1] [% yield] | ring closure, overall yield (33-membered ring, 1,2-dichloroethane) [% yield]
C=CCCC[C@](C)(NC(=O)CNC(C)=O)C(=O)N[C@@H](Cc1ccccc1)C(=O)N[C@@H](C)C(=O)N[C@H](C(=O)N[C@@](C)(CCCC=C)C(=O)N[C@@H](CCCCNC(=O)OC(C)(C)C)C(=O)N[C@@H](CCCCNC(=O)OC(C)(C)C)C(=O)N[C@H](C(=O)N[C@@H](C)C(=O)N[C@@H](COC(C)(C)C)C(=O)N[C@H](C(=O)N[C@H](C(=O)N[C@@H](CCCCNC(=O)OC(C)(C)C)C(=O)NCC(=O)N[C@@H](CC(C)C)C(N)=O)[C@@H](C)CC)C(C)C)C(C)C)C(C)C | 63 | –
C=CCCCCCC[C@@](C)(NC(=O)CNC(C)=O)C(=O)N[C@@H](Cc1ccccc1)C(=O)N[C@@H](C)C(=O)N[C@H](C(=O)N[C@H](C(=O)N[C@@H](CCCCNC(=O)OC(C)(C)C)C(=O)N[C@@H](CCCCNC(=O)OC(C)(C)C)C(=O)N[C@@](C)(CCCC=C)C(=O)N[C@@H](C)C(=O)N[C@@H](COC(C)(C)C)C(=O)N[C@H](C(=O)N[C@H](C(=O)N[C@@H](CCCCNC(=O)OC(C)(C)C)C(=O)NCC(=O)N[C@@H](CC(C)C)C(N)=O)[C@@H](C)CC)C(C)C)[C@@H](C)CC)C(C)C | – | 63
C=CCCC[C@](C)(NC(=O)[C@H](CCCCNC(=O)OC(C)(C)C)NC(=O)[C@H](CCCCNC(=O)OC(C)(C)C)NC(=O)[C@@H](NC(=O)[C@@H](NC(=O)[C@H](C)NC(=O)[C@H](Cc1ccccc1)NC(=O)[C@H](CC(C)C)NC(=O)CNC(C)=O)C(C)C)[C@@H](C)CC)C(=O)N[C@@H](C)C(=O)N[C@@H](COC(C)(C)C)C(=O)N[C@H](C(=O)N[C@@](C)(CCCC=C)C(=O)N[C@@H](CCCCNC(=O)OC(C)(C)C)C(=O)NCC(=O)N[C@@H](CC(C)C)C(N)=O)C(C)C | 66 | –
